Results: paper PMC8414802, “Hair Cell Generation in Cochlear Culture Models Mediated by Novel γ-Secretase Inhibitors” (Frontiers in Cell and Developmental Biology, 2021)

System: Atoh1-GFP positive hair cells and Sox2+ supporting cells in whole cochlea
Experiment: Ex vivo whole cochlea culture, drug applied at the round window niche
Assay type: cell-based, mouse
Description: To culture the intact cochlea of P0–P1 mice, the entire otic capsule (cochlea and semicircular canals) was carefully dissected. Connective tissues and nerves were removed to clear the round window niche and the capsule was positioned with the round window facing up in a sterile 35 mm dish. A surgical sponge was employed to blot dry the interior of the round window niche, which was then filled with 2 μl of the formulated drug and applied with a small pipette tip. Following 2 h of drug treatment at 37°C with 5% CO2, the tissue was transferred to a 50 ml conical tube containing 10 ml medium (DMEM, 5%FBS, 5% horse serum and ampicillin) and the tube was sparged with 95% O2/5% CO2 for 5–10 min and incubated for 2 days at 37°C, rotating on a roller/rocker (SCILOGEX MX-T6-S Analog Tube Roller) at 15–17 rpm.
For whole-mount immunohistochemistry, whole cochleae were fixed (4% PFA) ON at 4°C, then incubated in primary antibodies (72 h, rocking at 4°C), goat anti-GFP polyclonal Ab (AbCam, ab6673) and rabbit anti-Sox2 polyclonal IgG (GenTex, GTX101506) in 4% normal donkey serum. Following extended washes (over 24 h), cochlea were incubated for 24 h in secondary antibodies donkey anti-goat Alexa 488 (Thermo Fisher, A11055) and donkey anti-rabbit Alexa 647 (Thermo Fisher, A31573) and extensively washed. The intact OC were then microdissected from cochleae and mounted on a coverslip for confocal imaging. A LSM 510 Confocal Microscope (Zeiss) utilizing 63X Zeiss Plan-APOCHROMAT DIC oil, 1.4NA and Zen 2009 LSM imaging software was used to optically scan mid-apex regions of OCs. Cellular quantification and image analysis computation were performed with Imaris 8.2.1 software (Bitplane).
To assess the permeability of the compounds across the round window membrane, a novel ex vivo model was devised to compare drug entry, after delivery to the exterior of the cochlear capsule, to resemble middle ear application. Specifically, CPD3 application was tested in organotypic culture of the entire otic capsule (Figure 4). CPD3, formulated at two different concentrations (1 and 7.2 mM) in 70% PEG400 or 10% POX338 (POX), was applied at the round window niche. Drug formulations were allowed to absorb briefly into the cochlea prior to the 48 h culture. […] For the POX338 formulation, we further characterized the number of Sox2+ supporting cells in the sensory epithelium. […] Also in this model, we observed a trend for new hair cells to be greater toward the apex than the base in agreement with the results obtained with the OC organotypic culture and indicated GSI exposure was throughout the entire length of the organ of Corti length during the culture period.
FIGURE 4 Hair cell quantification in whole cochlea culture. (A) Hair cell counts from whole cochea culture with directly applied CPD3 in 70% PEG400 (1 mM or 7.2 mM). Atoh1-GFP positive hair cells in different organ of Corti regions (B, base; MB, mid-base; MA, mid-apex; A, apex) (n = 3 independent experiments). (B) Hair cell counts from whole cochea culture with directly applied CPD3 in 10% POX338 (1 mM;, or 7.2 mM). Atoh1-GFP positive hair cells in different organ of Corti regions (B, base; MB, mid-base; MA, mid-apex; A, apex; n = 3 independent experiments). (C) Immunostained inner ear sensory epithelia following whole cochlea culture with direct application of CPD3 (1 and 7.2 mM; Vehicle, 10% POX338). 3D projections of confocal stacks at mid-base region of organ of Corti, Atoh1-GFP (hair cells, green) and Sox2 (supporting cells, red). (D) Quantification of Atoh1-GFP-positive (green dots) and Sox2-positive cells (red dots) after direct application of CPD3 (1 or 7.2 mM), or vehicle formulated in 10% POX338. (*p < 0.05; ***p < 0.001, one-way ANOVA with multiple comparison; n = 12; 3 independent experiments; all regions-base to apex).

COc1ccc2c(c1)N1CCC(C)(C)C1=CC(=O)[C@H]2NC(=O)[C@H](C)NC(=O)CCC(F)(F)F [CPD3]
Increase in Atoh1+ hair cells above vehicle-only (1 mM in 10% POX338): 23.3% | Atoh1+ hair cells (1 mM in 10% POX338, 48 h culture): 72 ± 11 hair cells/100 μm | Change in Atoh1+ hair cells above vehicle-only (1 mM in 70% PEG400): no change | Atoh1+ hair cells (1 mM in 70% PEG400, 48 h culture): 54 ± 7 hair cells/100 μm | Increase in Atoh1+ hair cells above vehicle-only (7.2 mM in 10% POX338): 54.4% | Atoh1+ hair cells (7.2 mM in 10% POX338, 48 h culture): 90 ± 20 hair cells/100 μm | Increase in Atoh1+ hair cells above vehicle-only (7.2 mM in 70% PEG400): 60.1% | Atoh1+ hair cells (7.2 mM in 70% PEG400, 48 h culture): 87 ± 15 hair cells/100 μm | Supporting cell (Sox2+) counts (10% POX338 formulation, p < 0.001): significant decrease
